Test results reported in patent publication US11479556B1, “Bifunctional compounds for degrading BTK via ubiquitin proteosome pathway” (NURIX THERAPEUTICS, INC., priority 2018, dated 2022).

How the values were obtained:
Aiolos = molecular target: T1, Aiolos (Homo sapiens, UniProt Q96SW2+Q9UKT9); assay: Aiolos degradation flow cytometry assay in human PBMCs (T cells); type: cell-based; details: 24 hours, T cells (CD3+CD20-), read-out: Aiolos T Cell DC50
T1 construct: Frozen human peripheral blood mononuclear cells (PBMCs) were thawed and treated with DMSO or compound for 24 hours; endogenous in cells; host or cells: human PBMCs (T cells gated CD3+CD20-)
T1 sequence (Q9UKT9 whole entry): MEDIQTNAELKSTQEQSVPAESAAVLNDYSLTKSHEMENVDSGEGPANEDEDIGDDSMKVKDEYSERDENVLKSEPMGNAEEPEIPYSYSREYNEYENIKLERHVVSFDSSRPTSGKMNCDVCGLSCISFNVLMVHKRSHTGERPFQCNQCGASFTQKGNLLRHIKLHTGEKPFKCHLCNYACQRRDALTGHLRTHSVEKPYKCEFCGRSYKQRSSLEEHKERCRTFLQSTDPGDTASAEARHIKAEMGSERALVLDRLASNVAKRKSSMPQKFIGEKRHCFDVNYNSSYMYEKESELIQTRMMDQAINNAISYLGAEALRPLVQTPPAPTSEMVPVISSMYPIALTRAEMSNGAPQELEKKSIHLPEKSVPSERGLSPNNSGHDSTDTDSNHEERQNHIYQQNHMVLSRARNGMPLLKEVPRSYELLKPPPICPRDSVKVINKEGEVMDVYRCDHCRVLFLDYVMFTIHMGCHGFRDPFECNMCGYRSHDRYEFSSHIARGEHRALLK
T1 sequence (Q96SW2 whole entry): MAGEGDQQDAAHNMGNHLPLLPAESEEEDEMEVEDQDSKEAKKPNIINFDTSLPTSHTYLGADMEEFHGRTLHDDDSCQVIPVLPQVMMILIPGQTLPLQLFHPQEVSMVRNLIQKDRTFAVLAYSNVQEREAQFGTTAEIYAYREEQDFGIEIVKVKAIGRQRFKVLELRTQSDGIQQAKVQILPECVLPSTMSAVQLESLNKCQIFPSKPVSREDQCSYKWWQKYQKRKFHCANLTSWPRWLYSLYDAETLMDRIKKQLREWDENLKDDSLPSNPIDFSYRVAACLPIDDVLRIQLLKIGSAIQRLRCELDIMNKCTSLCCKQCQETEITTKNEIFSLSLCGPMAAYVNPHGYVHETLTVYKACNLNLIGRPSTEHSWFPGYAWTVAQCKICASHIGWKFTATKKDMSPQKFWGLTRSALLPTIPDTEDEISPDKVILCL
T1 sequence (Q16531 whole entry partner): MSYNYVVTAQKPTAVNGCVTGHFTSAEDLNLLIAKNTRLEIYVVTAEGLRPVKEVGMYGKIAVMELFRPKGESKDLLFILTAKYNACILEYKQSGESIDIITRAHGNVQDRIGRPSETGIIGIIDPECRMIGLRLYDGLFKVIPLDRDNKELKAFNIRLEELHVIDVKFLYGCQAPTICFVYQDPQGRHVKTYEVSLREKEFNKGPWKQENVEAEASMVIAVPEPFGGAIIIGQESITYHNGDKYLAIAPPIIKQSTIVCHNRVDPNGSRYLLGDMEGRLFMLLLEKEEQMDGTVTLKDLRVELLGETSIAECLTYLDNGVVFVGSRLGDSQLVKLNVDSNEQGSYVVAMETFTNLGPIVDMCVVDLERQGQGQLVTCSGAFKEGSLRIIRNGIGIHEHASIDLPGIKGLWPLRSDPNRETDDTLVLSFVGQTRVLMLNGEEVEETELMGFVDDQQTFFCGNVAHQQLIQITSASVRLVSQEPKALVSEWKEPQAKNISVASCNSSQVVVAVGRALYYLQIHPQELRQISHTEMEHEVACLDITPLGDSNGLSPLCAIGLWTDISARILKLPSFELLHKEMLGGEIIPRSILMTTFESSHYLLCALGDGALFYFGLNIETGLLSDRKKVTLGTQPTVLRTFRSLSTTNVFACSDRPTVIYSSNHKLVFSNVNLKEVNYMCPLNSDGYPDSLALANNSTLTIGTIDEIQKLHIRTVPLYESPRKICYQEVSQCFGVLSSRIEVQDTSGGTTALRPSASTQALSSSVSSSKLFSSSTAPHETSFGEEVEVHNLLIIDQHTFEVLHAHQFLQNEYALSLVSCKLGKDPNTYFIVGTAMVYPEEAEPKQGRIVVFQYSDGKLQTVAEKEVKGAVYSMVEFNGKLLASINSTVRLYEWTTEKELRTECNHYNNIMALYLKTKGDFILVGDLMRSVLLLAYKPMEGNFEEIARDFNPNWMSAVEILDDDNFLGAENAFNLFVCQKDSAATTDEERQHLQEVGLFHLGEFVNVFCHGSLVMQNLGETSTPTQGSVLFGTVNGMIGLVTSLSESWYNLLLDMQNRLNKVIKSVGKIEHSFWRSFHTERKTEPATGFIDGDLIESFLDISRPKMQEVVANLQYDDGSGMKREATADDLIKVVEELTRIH
Protocol: Example 67: Aiolos Degradation Assay
Frozen human peripheral blood mononuclear cells (PBMCs) were thawed and treated with DMSO or compound for 24 hours and then fixed and permeabilized using a Foxp3/Transcription Factor Fixation/Permeabilization Kit (eBioscience, 00-5523). Cells were stained with fluorophore-conjugated antibodies against CD20 (Biolegend 302330), CD3 (BD Pharmingen 552127), and Aiolos (Biolegend 371106). An additional set of DMSO-treated PBMCs was stained for CD20, CD3, and an AlexaFluor 647-conjugated mouse IgG1 isotype control antibody (Biolegend 400136). Stained cells were analyzed using an Attune NxT Acoustic Focusing Flow Cytometer (Thermo-Fisher A29004), and data was analyzed using FlowJo (v10.5.3) and GraphPad Prism (v7.00) software. Single lymphocytes were gated for B cells (CD20+CD3−) and T cells (CD3+CD20−), and the geometric mean fluorescence intensity (MFI) of Aiolos was calculated for each population. The MFI of the isotype control was calculated for each population and used to quantify background staining. Percent Aiolos degradation was calculated for each compound-treated sample using the following equation: […]
Four-parameter non-linear regressions were performed in GraphPad Prism 7.02 to obtain DC50 values. Aiolos T Cell DC50 values are provided in Table 4, wherein A<10.0 nM, 10.0 nM≤B≤1000 nM, and 1000 nM<C.

BTK [1] = molecular target: T2, BTK (Homo sapiens, UniProt Q06187); assay: Cellular BTK HTRF assay (BTK degradation) in TMD8 cells; type: cell-based; details: four hours incubation, Total-BTK HTRF relative to DMSO-treated cells
T2 construct: endogenous in cells; host or cells: TMD8 cells
T2 sequence (Q06187 whole entry): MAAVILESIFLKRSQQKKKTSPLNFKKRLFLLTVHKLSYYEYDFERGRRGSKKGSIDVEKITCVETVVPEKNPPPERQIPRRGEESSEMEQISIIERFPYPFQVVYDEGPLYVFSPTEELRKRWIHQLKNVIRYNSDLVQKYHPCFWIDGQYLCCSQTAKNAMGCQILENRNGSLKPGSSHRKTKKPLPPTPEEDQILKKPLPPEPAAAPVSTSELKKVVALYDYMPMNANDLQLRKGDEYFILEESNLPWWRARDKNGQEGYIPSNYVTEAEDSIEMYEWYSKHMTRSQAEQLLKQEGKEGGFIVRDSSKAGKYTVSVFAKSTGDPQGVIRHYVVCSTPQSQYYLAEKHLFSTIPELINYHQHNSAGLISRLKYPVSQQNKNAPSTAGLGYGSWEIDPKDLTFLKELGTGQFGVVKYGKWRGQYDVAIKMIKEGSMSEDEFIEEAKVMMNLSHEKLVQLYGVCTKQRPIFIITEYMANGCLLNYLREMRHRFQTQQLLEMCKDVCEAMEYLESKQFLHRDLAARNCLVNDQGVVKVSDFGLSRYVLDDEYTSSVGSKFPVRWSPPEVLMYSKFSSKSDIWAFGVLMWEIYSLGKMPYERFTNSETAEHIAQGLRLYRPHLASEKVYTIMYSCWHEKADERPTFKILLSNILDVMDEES
In short: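 TMD8 cells were treated with compounds (final DMSO <0.200) for four hours at 37° C, 5% CO2, then lysed for 30 minutes. Total BTK was measured by two-antibody HTRF, taking the 665/620 nm ratio with background subtracted and expressed relative to DMSO-treated cells. DC50 came from four-parameter nonlinear regression.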

BTK [2] = molecular target: T3, BTK (Mus musculus, UniProt P35991); assay: Mouse BTK degradation assay with oral dosing; type: in vivo; details: CD-1 or BALB/c mice, oral gavage (PO); Yes = significant BTK degradation upon oral dosage
T3 construct: from tissue; host or cells: whole blood or spleen of CD-1 or BALB/c mice
T3 sequence (P35991 whole entry): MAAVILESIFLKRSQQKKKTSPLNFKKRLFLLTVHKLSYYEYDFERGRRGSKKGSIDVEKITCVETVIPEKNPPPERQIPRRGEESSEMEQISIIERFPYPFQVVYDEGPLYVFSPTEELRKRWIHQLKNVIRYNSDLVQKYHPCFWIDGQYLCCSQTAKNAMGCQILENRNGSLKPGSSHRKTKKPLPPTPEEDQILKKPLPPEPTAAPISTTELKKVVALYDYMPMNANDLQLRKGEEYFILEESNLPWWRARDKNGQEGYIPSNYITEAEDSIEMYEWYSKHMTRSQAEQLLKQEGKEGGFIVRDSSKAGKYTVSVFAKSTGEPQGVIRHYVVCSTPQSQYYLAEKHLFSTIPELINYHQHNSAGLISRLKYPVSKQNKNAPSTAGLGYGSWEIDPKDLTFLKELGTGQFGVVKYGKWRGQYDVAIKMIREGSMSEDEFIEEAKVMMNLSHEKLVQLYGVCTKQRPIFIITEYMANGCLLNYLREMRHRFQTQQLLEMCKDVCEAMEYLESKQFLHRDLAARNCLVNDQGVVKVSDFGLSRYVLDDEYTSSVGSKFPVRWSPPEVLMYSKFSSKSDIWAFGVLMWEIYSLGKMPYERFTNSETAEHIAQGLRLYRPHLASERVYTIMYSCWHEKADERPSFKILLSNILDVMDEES
Protocol: Example 68: Mouse BTK Degradation Assay with Oral Dosing
A method of determining the pharmacodynamic profile of compounds of the present invention (experimental compound) was performed by dosing either CD-1 or BALB/c mice with the compound. The experimental compound was prepared in a suitable formulation and was administered via oral gavage (PO) at a suitable dose level and frequency as informed by prior pharmacokinetic and tolerability studies. Following administration of the experimental compound, BTK levels in blood or splenocytes are measured using flow cytometry or HTRF. For assessment of BTK levels via flow cytometry, either whole blood or spleen were first treated with ACK RBC lysis buffer to facilitate lysing of red blood cells. Remaining cells were then stained with fluorophore-conjugated antibodies against CD45, TCR beta and CD45R (B220). Cell pellets were washed with 1×PBS and fixed and permeabilized for 24 hrs with Foxp3/Transcription Factor Fixation/Permeabilization Kit. Cells were then stained intracellularly with unconjugated BTK antibody and detected with a fluorophore-conjugated secondary antibody. Stained cells were run on an Attune NxT Acoustic Focusing Flow Cytometer (Thermo-Fisher A29004), and data was analyzed using FlowJo (v10.5.3) and GraphPad Prism (v7.00) software. Lymphocytes were gated for B cells defined as CD45+ TCR beta− B220+ and T cells as CD45+ TCR beta+ B220−. The BTK geometric mean fluorescence intensity (MFI) was calculated for B and T cells. Percent BTK degradation for each experimental compound treated sample was calculated using the equation described below: […]

CN1CCN([C@@H]2CCCN(c3cnc(C(N)=O)c(Nc4ccc(C5(C)CCN(C(=O)CCOCCC(=O)Nc6cccc7c6CN(C6CCC(=O)NC6=O)C7=O)CC5)cc4)n3)C2)C1=O (stereo partly drawn) [Compound 14]
DC50 (Aiolos): > 1000 nM
DC50 (BTK [1]): > 15 nM

CN1CCN([C@@H]2CCCN(c3cnc(C(N)=O)c(Nc4ccc(N5CCN(CCCCc6cccc7c6CN(C6CCC(=O)NC6=O)C7=O)CC5)cc4)n3)C2)C1=O (stereo partly drawn) [Compound 17]
DC50 (Aiolos): 10 to 1000 nM
DC50 (BTK [1]): < 5 nM

CN1CCN([C@@H]2CCCN(c3cnc(C(N)=O)c(Nc4ccc(C5CCN(C(=O)CCOCCNc6cccc7c6C(=O)N(C6CCC(=O)NC6=O)C7=O)CC5)cc4)n3)C2)C1=O (stereo partly drawn) [Compound 25]
DC50 (Aiolos): < 10 nM
DC50 (BTK [1]): 5 to 15 nM

CN1CCN([C@@H]2CCCN(c3cnc(C(N)=O)c(Nc4ccc(N5CCC6(CCCN(c7ccc8c(c7)C(=O)N(C7CCC(=O)NC7=O)C8=O)C6)CC5)cc4)n3)C2)C1=O (stereo partly drawn) [Compound 29]
DC50 (Aiolos): > 1000 nM
DC50 (BTK [1]): < 5 nM

CN1CCN([C@@H]2CCCN(c3cnc(C(N)=O)c(Nc4ccc5c(c4)CCN(C4CN(c6ccc7c(c6)C(=O)N(C6CCC(=O)NC6=O)C7=O)C4)C5)n3)C2)C1=O (stereo partly drawn) [Compound 30]
DC50 (Aiolos): < 10 nM
DC50 (BTK [1]): 5 to 15 nM

CN1CCN([C@@H]2CCCN(c3cnc(C(N)=O)c(Nc4ccc5c(c4)CCN(CC4CCN(c6ccc7c(c6)C(=O)N(C6CCC(=O)NC6=O)C7=O)CC4)C5)n3)C2)C1=O (stereo partly drawn) [Compound 31]
DC50 (Aiolos): 10 to 1000 nM
DC50 (BTK [1]): < 5 nM

CN1CCN([C@@H]2CCCN(c3cnc(C(N)=O)c(Nc4ccc(N5CC6(C5)CN(c5ccc7c(c5)C(=O)N(C5CCC(=O)NC5=O)C7=O)C6)cc4)n3)C2)C1=O (stereo partly drawn) [Compound 34, 3-((4-(6-(2-(2,6-dioxopiperidin-3-yl)-1,3-dioxoisoindolin-5-yl)-2,6-diazaspiro[3.3]heptan-2-yl)phenyl)amino)-5-((R)-3-(3-methyl-2-oxoimidazolidin-1-yl)piperidin-1-yl)pyrazine-2-carboxamide]
DC50 (Aiolos): 10 to 1000 nM
DC50 (BTK [1]): < 5 nM

CN1CCN([C@@H]2CCCN(c3cnc(C(N)=O)c(Nc4ccc(C5CN(C6CCN(c7ccc8c(c7)C(=O)N(C7CCC(=O)NC7=O)C8=O)CC6)C5)cc4)n3)C2)C1=O (stereo partly drawn) [Compound 37]
DC50 (Aiolos): 10 to 1000 nM
DC50 (BTK [1]): < 5 nM

CN1CCN([C@@H]2CCCN(c3cnc(C(N)=O)c(Nc4ccc(N5CCN(C[C@@H]6[C@H]7CN(c8ccc9c(c8)C(=O)N(C8CCC(=O)NC8=O)C9=O)C[C@@H]67)CC5)cc4)n3)C2)C1=O (stereo partly drawn) [Compound 38]
DC50 (Aiolos): 10 to 1000 nM
DC50 (BTK [1]): < 5 nM

CN1CCN([C@@H]2CCCN(c3cnc(C(N)=O)c(Nc4ccc(C5CCN(C[C@H]6CCN(c7ccc8c(c7)C(=O)N(C7CCC(=O)NC7=O)C8=O)C6)CC5)cc4)n3)C2)C1=O (stereo partly drawn) [Compound 44]
BTK degradation after oral dosing (BTK [2]): Yes
DC50 (BTK [1]): < 5 nM

CN1CCN([C@@H]2CCCN(c3cnc(C(N)=O)c(Nc4ccc(C5CCN(CC6CCN(c7ccc8c(c7)C(=O)N(C7CCC(=O)NC7=O)C8=O)CC6)CC5)cc4)n3)C2)C1=O (stereo partly drawn) [Compound 51]
DC50 (Aiolos): 10 to 1000 nM
DC50 (BTK [1]): < 5 nM

CN1CCN([C@@H]2CCCN(c3cnc(C(N)=O)c(Nc4ccc(C5CCN(C6CN(c7ccc8c(c7)C(=O)N(C7CCC(=O)NC7=O)C8=O)C6)CC5)cc4)n3)C2)C1=O (stereo partly drawn) [Compound 53]
DC50 (Aiolos): 10 to 1000 nM
DC50 (BTK [1]): < 5 nM

CN1CCN([C@@H]2CCCN(c3cnc(C(N)=O)c(Nc4ccc(N5CCN(C(=O)CCOCCCc6ccc7c(c6)C(=O)N(C6CCC(=O)NC6=O)C7)CC5)cc4)n3)C2)C1=O (stereo partly drawn) [Compound 61]
DC50 (Aiolos): > 1000 nM
DC50 (BTK [1]): < 5 nM

CN1CCN([C@@H]2CCCN(c3cnc(C(N)=O)c(Nc4ccc(OCCCNc5ccc6c(c5)C(=O)N(C5CCC(=O)NC5=O)C6=O)cc4)n3)C2)C1=O (stereo partly drawn) [Compound 64]
DC50 (Aiolos): 10 to 1000 nM
DC50 (BTK [1]): > 15 nM

NC(=O)c1ncc(N2CCC[C@H](N3CCOC3=O)C2)nc1Nc1ccc(N2CCC(C3CN(c4ccc5c(c4)C(=O)N(C4CCC(=O)NC4=O)C5=O)C3)CC2)cc1 (stereo partly drawn) [Compound 70]
BTK degradation after oral dosing (BTK [2]): Yes
DC50 (BTK [1]): < 5 nM

CN1CCN([C@@H]2CCCN(c3cnc(C(N)=O)c(Nc4ccc(C5(C)CCN(C[C@H]6CCN(c7ccc8c(c7)C(=O)N(C7CCC(=O)NC7=O)C8=O)C6)CC5)cc4)n3)C2)C1=O (stereo partly drawn) [Compound 71]
BTK degradation after oral dosing (BTK [2]): Yes
DC50 (BTK [1]): < 5 nM

CN1CCN([C@@H]2CCCN(c3cnc(C(N)=O)c(Nc4ccc(C5CCN(CC6CCN(c7ccc8c(=O)n(C9CCC(=O)NC9=O)ccc8c7)CC6)CC5)cc4)n3)C2)C1=O (stereo partly drawn) [Compound 72]
BTK degradation after oral dosing (BTK [2]): Yes
DC50 (BTK [1]): < 5 nM

NC(=O)c1ncc(N2CCC[C@@H](N3CCOC3=O)C2)nc1Nc1ccc(C2CCN(C[C@H]3CCN(c4ccc5c(c4)C(=O)N(C4CCC(=O)NC4=O)C5=O)C3)CC2)cc1 (stereo partly drawn) [Compound 73]
BTK degradation after oral dosing (BTK [2]): Yes
DC50 (BTK [1]): < 5 nM

CN1CCN([C@H]2CCCN(c3cnc(C(N)=O)c(Nc4ccc(C5(C)CCN(C6CN(c7ccc8c(c7)C(=O)N(C7CCC(=O)NC7=O)C8=O)C6)CC5)cc4)n3)C2)C1=O (stereo partly drawn) [Compound 74]
BTK degradation after oral dosing (BTK [2]): Yes
DC50 (BTK [1]): < 5 nM

CN1CCN([C@@H]2CCCN(c3cnc(C(N)=O)c(Nc4ccc(C5(C)CCN(C6CN(Cc7ccc8c(c7)C(=O)N(C7CCC(=O)NC7=O)C8=O)C6)CC5)cc4)n3)C2)C1=O (stereo partly drawn) [Compound 75]
DC50 (Aiolos): > 1000 nM
DC50 (BTK [1]): < 5 nM

CN1CCN([C@H]2CCCN(c3cnc(C(N)=O)c(Nc4cnn(C5CCN(CC6CN(c7ccc8c(c7)C(=O)N(C7CCC(=O)NC7=O)C8=O)C6)CC5)c4)n3)C2)C1=O (stereo partly drawn) [Compound 78]
DC50 (Aiolos): 10 to 1000 nM
DC50 (BTK [1]): < 5 nM

CN1CCN([C@H]2CCCN(c3cnc(C(N)=O)c(Nc4ccc5c(c4)CCN(CC4CN(c6ccc7c(c6)C(=O)N(C6CCC(=O)NC6=O)C7=O)C4)C5)n3)C2)C1=O (stereo partly drawn) [Compound 92]
DC50 (Aiolos): < 10 nM
DC50 (BTK [1]): 5 to 15 nM

CN1CCN([C@H]2CCCN(c3cnc(C(N)=O)c(Nc4ccc(N5CCN(CC#Cc6cccc7c6CN(C6CCC(=O)NC6=O)C7=O)CC5)cc4)n3)C2)C1=O (stereo partly drawn) [Compound 99]
DC50 (Aiolos): > 1000 nM
DC50 (BTK [1]): < 5 nM

NC(=O)c1ncc(N2CCCCC2)nc1Nc1ccc(N2CCC3(CCN(Cc4ccc5c(c4)C(=O)N(C4CCC(=O)NC4=O)C5=O)CC3)CC2)cc1 (stereo not drawn) [Compound 123]
DC50 (Aiolos): > 1000 nM
DC50 (BTK [1]): 5 to 15 nM

Cn1cc(Nc2nc(N3CCC[C@H](N4CC5(CN(CC6CCN(c7ccc(C(=O)NC8CCC(=O)NC8=O)nc7)CC6)C5)OC4=O)C3)cnc2C(N)=O)cn1 (stereo partly drawn) [Compound 131]
BTK degradation after oral dosing (BTK [2]): Yes
DC50 (BTK [1]): < 5 nM

NC(=O)c1ncc(-c2nccs2)nc1Nc1ccc(N2CCC3(CCN(Cc4ccc5c(c4)C(=O)N(C4CCC(=O)NC4=O)C5=O)CC3)CC2)cc1 (stereo not drawn) [Compound 150]
BTK degradation after oral dosing (BTK [2]): Yes
DC50 (BTK [1]): 5 to 15 nM

CN1CCN([C@@H]2CCCN(c3cnc(C(N)=O)c(Nc4ccc(C5CCN(CCCNc6cccc7c6C(=O)N(C6CCC(=O)NC6=O)C7=O)CC5)cc4)n3)C2)C1=O (stereo partly drawn) [Compound 155]
DC50 (Aiolos): 10 to 1000 nM
DC50 (BTK [1]): < 5 nM

CN1CCN([C@@H]2CCCN(c3cnc(C(N)=O)c(Nc4ccc(C5CCN(CC6CCN(c7ccc8c(c7)n(C)c(=O)n8C7CCC(=O)NC7=O)CC6)CC5)cc4)n3)C2)C1=O (stereo partly drawn) [Compound 156]
DC50 (Aiolos): < 10 nM
DC50 (BTK [1]): < 5 nM

CN1CCN(c2cnc(C(N)=O)c(Nc3ccc(C4CCN(C[C@H]5CCN(c6ccc7c(c6)C(=O)N(C6CCC(=O)NC6=O)C7=O)C5)CC4)cc3)n2)CC1 (stereo partly drawn) [Compound 157]
DC50 (Aiolos): > 1000 nM
DC50 (BTK [1]): 5 to 15 nM

CN1CCN([C@@H]2CCCN(c3cnc(C(N)=O)c(Nc4ccc(C5CCN(CC6CCN(c7ccc(OC8CCC(=O)NC8=O)cn7)CC6)CC5)cc4)n3)C2)C1=O (stereo partly drawn) [Compound 166]
DC50 (Aiolos): > 1000 nM
DC50 (BTK [1]): < 5 nM
